# Experimental data: US8017828B2, “Utilization of rare sugars in plant or microorganism” (Shikoku Research Institute Incorporated, priority 2004, dated 2011)
# What was measured:
# Salsola komarovii = experiment: Seed germination, short-time and continuous treatment (Experiment 2); assay type: in vivo; details: for germination rate: immersed in 1% solution for 24 hours, in the end, DW 28%
# Method: In order to clarify an effect of a short-time treatment, 50 seeds of Salsola komarovii, tomato (Home Momotaro) and sunny lettuce (Red Wave), and 20 seeds of morning glory (Tairin Zaki Kongo) were immersed in any of deionized water, 1% D-psicose, 1% D-allose and 1% L-galactose for 24 hours (25° C., dark), respectively, then, they were lightly washed with deionized water. Then, the seeds were sown in a dish with a diameter of 9 cm having a filter paper placed therein, and germinated under the same condition by poring 5 to 10 ml of deionized water therein. Further, for the comparison, a continuous treatment with 1% D-psicose was carried out in accordance with the same procedure.
# [1] = system: Aspergillus niger, Cladosporium cladosporioides and Penicillium chrysogenum; experiment: Mycelial elongation of filamentous fungi on agar with rare sugar; assay type: cell-based; details: 0.05% (w/v) in agar medium, 25° C., 4 days
# Method: By using as targets, Aspergillus niger, Cladosporium cladosporioides and Penicillium chrysogenum, which are typical filamentous fungi and generally seen in a living environment, an effect of a rare sugar on mycelial elongation was examined.
# As the test fungal strains, NBRC 4066 strain, NBRC 4459 strain and NBRC 4626 strain were used.
# Each test fungal strain was cultured on a potato dextrose agar medium at 25° C. for 7 days, and one in which the mycelium extended over the surface of the dish was pushed out along with the agar medium in such a manner that the agar medium was in a disc form with a diameter of 1.1 cm, which was placed at the center of a dish filled with an agar medium (1% Bacto agar) supplemented with any of a variety of rare sugars (allitol, D-altrose, L-mannose, L-galactose, D-tagatose, D-sorbose, D-psicose, D-allose, D-glucose and D-fructose) at 0.05% (w/v) and cultured at 25° C. for 4 days. After the cultivation, the length of the mycelium extending on the surface of the culture medium was measured. Two culture media were prepared for each test plot, and the mycelial length represents the average thereof.
# [2] = system: Fusarium oxysporum, Glomerella cingulata, Verticillium dahliae and Botrytlis cinerea; experiment: Mycelial elongation of plant pathogenic bacteria on agar with rare sugar; assay type: cell-based; details: 0.05% (w/v) in agar medium, 23° C., 7 days
# Method: By using as targets, Fusarium oxysporum, Glomerella cingulata, Verticillium dahliae and Botrytlis cinerea, which are typical plant pathogenic bacteria, an effect of a rare sugar on mycelial elongation was examined.
# As the test bacterial strains, IFO 31213 strain, IFO 6425 strain, IFO 9765 strain and IFO 9760 strain were used.
# After the cultivation, the length of the extending mycelium was measured.
# [3] = system: cherry tomato plant “petite”; experiment: Hydroponic growth of cherry tomato with 0.05 or 0.5 mM sugar, 40 days; assay type: in vivo; details: until 40 days; for stem length, rank among 7 treated plots: 0.05 mM
# Method: Further, on Dec. 18, 2003, a cherry tomato plant “petite” was transplanted for permanent planting to a hydroponic apparatus, and a total of 7 treated plots in which a plot without addition was added to 6 treated plots with the use of a nutrient solution supplemented with 0.05 mM or 0.5 mM D-psicose, D-fructose or mannitol were prepared. A survey was carried out with regard to the growth until 40 days after the permanent planting. As a result, the stem length was the shortest in the cases of 0.05 mM D-psicose and 0.05 mM D-fructose. Although a significant difference in the stem diameter was not observed among treated plots, however, a tendency was observed that the stem was slightly thinner in the treated plot of any of the sugars at a high concentration. A significant difference in the number of leaves was not observed among treated plots.
# [4] = system: seeds of vegetables, ornamental plants, herbs, fruit trees, grains and feed crops; experiment: Seed germination, continuous treatment (Experiment 1); assay type: in vivo
# Source text: Seeds of vegetables (11 families and 51 species or varieties); ornamental plants (19 families and 47 species or varieties); […] (4 families and 14 species or varieties); fruit trees (3 families and 3 species or varieties); grains (1 family and 3 species or varieties); and feed crops (1 family and 3 species or varieties) were continuously treated with any of 4 types of solutions of deionized water (control), 1% D-fructose, 1% D-psicose and 0.5% D-fructose+0.5% D-psicose and germinated under the condition of 25° C., 35 μmol·m^−2·s^−1, and 16-hour lighting or 16-hour dark. As for the number of seeds, 50 seeds were used for each solution basically, and when the number of seeds was small, the seeds were distributed in such a manner that the number of seeds for each solution became equal. The seeds were sown in a dish with a diameter of 9 cm having a filter paper placed therein or when the seeds were large, they were sown in a styrol container with a diameter of 10 cm and a height of 45 mm. Then, 10 ml or 50 ml of any of the solutions was poured therein, and deionized water was suitably added depending on the transpiration.
# [5] = system: tomato plant (variety: “House Momotaro”); experiment: Germination of D-psicose treated tomato seeds on agar without Fusarium oxysporum; assay type: in vivo; details: no Fusarium oxysporum; D-psicose seed 0.05%, medium non
# Method: To be more specific, seeds of a tomato plant (variety: “House Momotaro”) were subjected to an immersion treatment by immersing them in a D-psicose solution at a concentration of from 0.01% (w/v) to 0.1% (w/v) for 15 minutes while stirring slowly, followed by air-drying on sterile gauze, and then used as treated seeds. […] At this time, test plots in which D-psicose was added to the agar medium at a concentration of from 0.01% (w/v) to 0.1% (w/v) were prepared. Then, the dishes were placed at 23° C. under the dark condition for 7 days to 10 days, and observation was carried out with regard to the elongation of shoot, the elongation of root, the shoot development rate, the infection state in root and the like.
# [6] = 1% continuous, 41 species listed
SMILES,germination rate (Salsola komarovii),effect on mycelial elongation [1],inhibitory effect on mycelial elongation [2],"stem length, rank among 7 treated plots [3]","effect on inhibition of germination by D-psicose ([4]; 0.5% D-fructose+0.5% D-psicose, 32 species listed)","germination [4, 6]","germination ([4]; 1% continuous, Lemon Balm and Green Pea (2 species))",germination (Salsola komarovii; continuous treatment with 1%),"underground part weight, rank among 7 treated plots ([3]; 0.5 mM)","germination ([4]; 1% continuous, 32 species listed)","elongation of roots ([4]; 1% continuous, Diospyros kaki)","germination ([4]; 1% continuous, Myosotis scorpioides and Chinese lantern plant (2 species))","germination ([4]; 1% continuous, Salsola komarovii, Diospyros kaki, Clarkia amoena (3 species))",germination ([4]; many plants in the Brassica family),Root length [5],Shoot length [5]
O=C[C@H](O)[C@H](O)[C@H](O)[C@H](O)CO [D-allose],16%,have an effect of inhibiting mycelial elongation,has an effect on inhibiting mycelial elongation,,,,,,,,,,,,,
"O=C(CO)[C@@H](O)[C@H](O)[C@H](O)CO [D-fructose, reference compound]",,,,the shortest,Mitigated,Inhibited,Promoted,,,,,,,,,
O=C(CO)[C@H](O)[C@H](O)[C@H](O)CO [D-psicose],28%,have an effect of inhibiting mycelial elongation,has an effect on inhibiting mycelial elongation,the shortest,,Inhibited,,promoted,the smallest,Inhibition of Germination,inhibited,Significantly Inhibited,Not Affected or was Promoted Slightly,inhibited,7.4 cm,6.7 cm
